Results published in ChEMBL document CHEMBL1156824, “Physicochemical space for optimum oral bioavailability: contribution of human intestinal absorption and first-pass elimination” (J Med Chem, 2010).

Legend:
Homo sapiens [1] = organism: Homo sapiens; test: Hepatic clearance in human; conditions: in vivo
[2] = Volume of distribution at steady state in human; conditions: in vivo
clinical = conditions: human, in vivo
Homo sapiens [3] = organism: Homo sapiens; test: Fraction absorbed in human; conditions: in vivo
Homo sapiens [4] = organism: Homo sapiens; test: Fraction escaping gut-wall elimination in human; conditions: in vivo
Homo sapiens [5] = organism: Homo sapiens; test: Fraction escaping hepatic elimination in human; conditions: in vivo
Homo sapiens [6] = test: Oral bioavailability in human; conditions: in vivo

Row | SMILES | CL (Homo sapiens [1]) [mL/min/kg] | Vd [2] [L/kg] | CL renal (clinical) [mL/min/kg] | Fa (Homo sapiens [3]) | Fg (Homo sapiens [4]) | Fh (Homo sapiens [5]) | F_fraction (Homo sapiens [6])
1 | Cc1nnc2n1-c1ccc(Cl)cc1C(c1ccccc1)=NC2 [ALPRAZOLAM] | 0.6 | 0.8 | 0.1 |  |  |  | 
2 | CCCCc1oc2ccccc2c1C(=O)c1cc(I)c(OCCN(CC)CC)c(I)c1 [AMIODARONE] |  |  |  | 1 | 0.71 | 0.92 | 
3 | CC(C)NCC(O)COc1ccc(CC(N)=O)cc1 (stereo not drawn) [ATENOLOL] |  |  |  |  | 1 | 1 | 
4 | CN1[C@@H]2CC[C@H]1C[C@@H](OC(=O)C(CO)c1ccccc1)C2 (stereo partly drawn) [ATROPINE] |  |  |  | 0.98 | 0.59 | 0.86 | 
5 | CC(C)NCC(O)COc1ccc(CCOCC2CC2)cc1 (stereo not drawn) [BETAXOLOL] | 2.7 |  |  | 1 | 1.01 | 0.88 | 0.89
6 | CC1=C(C(=O)O)N2C(=O)[C@@H](NC(=O)[C@H](N)c3ccccc3)[C@H]2SC1 [CEPHALEXIN ANHYDROUS] |  |  |  |  | 0.91 |  | 
7 | CN/C(=N/CCSCc1nc[nH]c1C)NC#N [CIMETIDINE] | 0.2 |  |  | 0.68 |  | 0.99 | 0.68
8 | O=C(O)c1cn(C2CC2)c2cc(N3CCNCC3)c(F)cc2c1=O [CIPROFLOXACIN] |  |  |  | 0.75 | 0.98 | 0.94 | 
9 | O=P1(N(CCCl)CCCl)NCCCO1 (stereo not drawn) [CYCLOPHOSPHAMIDE ANHYDROUS] | 1 |  | 0.1 | 0.9 | 0.86 | 0.96 | 0.74
10 | O=C1NCC2(CCN(CCc3ccccc3)CC2)O1 [FENSPIRIDE] | 0.8 | 3 | 1.8 |  |  |  | 
11 | Nc1nc(O)c2ncn(COC(CO)CO)c2n1 [GANCICLOVIR] | 0.5 | 1 |  |  |  |  | 0.09
12 | Cc1ncc([N+](=O)[O-])n1CCO [METRONIDAZOLE] | 0.7 | 0.4 | 0.2 |  |  |  | 
13 | CN1CCC[C@H]1c1cccnc1 [NICOTINE] | 15 |  |  | 1 | 0.86 | 0.35 | 0.3
14 | CN1Cc2c(N)cccc2C(c2ccccc2)C1 (stereo not drawn) [NOMIFENSINE] | 9.5 | 6 |  |  |  |  | 
15 | CNCCC=C1c2ccccc2CCc2ccccc21 [NORTRIPTYLINE] | 9.8 |  |  | 1 | 0.89 | 0.57 | 0.51
16 | O=C(O)c1cc(/N=N/c2ccc(O)c(C(=O)O)c2)ccc1O [OLSALAZINE] | 0.9 | 0.07 | 0.3 |  |  |  | 
17 | CN1[C@@H]2C[C@@H](OC(=O)[C@H](CO)c3ccccc3)C[C@H]1[C@@H]1O[C@@H]12 [SCOPOLAMINE] |  |  |  |  | 0.82 | 0.35 | 
18 | Nc1ccc(S(=O)(=O)Nc2ncccn2)cc1 [SULFADIAZINE] | 0.2 |  | 0.3 | 0.85 | 1.01 | 0.99 | 0.85
19 | Cc1cc(NS(=O)(=O)c2ccc(N)cc2)no1 [SULFAMETHOXAZOLE] |  |  |  | 1 | 1.01 | 0.99 | 
20 | CCN1CCCC1CNC(=O)c1cc(S(N)(=O)=O)ccc1OC (stereo not drawn) [SULPIRIDE] | 0.1 | 2.72 |  |  |  |  | 0.27
21 | CC(C(=O)O)c1ccc(C(=O)c2cccs2)cc1 (stereo not drawn) [SUPROFEN] | 0.7 | 0.04 | 0.0357 |  |  |  | 
22 | COc1cc(Cc2cnc(N)nc2N)cc(OC)c1OC [TRIMETHOPRIM] |  |  |  | 0.97 | 0.83 | 0.95 | 0.76
23 | O=C1Cc2cc(CCN3CCN(c4nsc5ccccc45)CC3)c(Cl)cc2N1 [ZIPRASIDONE] | 5 | 1 | 0.1 |  |  |  | 
